“Also recorded” adds a separate entry of the source.
Columns and labels:
[1] = system: iNOS; assay: Western blotting of iNOS in hippocampal slices exposed to OA; format: cell-based, mouse; details: hippocampal slices treated with OA
From the text: (§1) As iNOS can be produced through the NF-κB (nuclear factor kappa-light-chain-enhancer of activated B cells) pathway, we analyzed the levels of p65, one of the components that form the NF-κB transcription factor family.[82] […] We also measured HO-1, an inducible enzyme transcribed by NRF2, known for its anti-inflammatory, antioxidant, and neuroprotective effects. […] NRF2 and NF-κB signaling pathways cooperate to maintain the physiological homeostasis of cellular redox status and to regulate the cellular response to stress and inflammation.[19],[83] […] This last mechanism could be related to our resveratrol-based MTDL 4e.
(§2) After acute treatment, the hippocampal slices were lysed in a cold AKT lysis buffer (137 mM NaCl, 20 mM NaF, 10% glycerol, 20 mM Tris–HCl, 1% Nonidet P-40, 1 μg/mL leupeptin, 1 mM phenylmethylsulfonylfluoride, 1 mM sodium pyrophosphate, and 1 mM Na3VO4, pH 7.5). The total protein in each sample was quantified using the Pierce BCA protein kit (Thermo Fisher). 20 μg of protein was resolved by sodium dodecyl sulfate polyacrylamide gel electrophoresis (SDS-PAGE) and transferred to Immobilon-P PVDF membranes (Millipore Corp.). […] The membranes were washed, incubated with ECL WB Kit (GE Healthcare, Amersham), and exposed using a ChemiDoc MP system (Bio-Rad Laboratories) for the visualization of the specific bands, which were then analyzed with Fiji software.

[2] = system: mice hippocampal organotypic cultures; assay: Organotypic hippocampal culture, chronic OA treatment; format: cell-based, mouse; details: 1 μM, OA 10 nM, 72 h
Description: 6–10 days old mice (C57BL/6j) were sacrificed, and hippocampi were carefully removed in Hank’s balanced salt solution (HBBS). 300 μm slices were cut and placed in 0.4 μm culture inserts (Merck-Millipore, Germany) and stabilized for 24 h at 37 °C in neurobasal media (Gibco, Invitrogen) supplemented with 10% FBS (Gibco, Invitrogen). […] Finally, cell death and ROS production were determined with the fluorescent probes PI (1 μg/mL) and H2DCFDA (10 μg/mL), respectively.
(§3) Fluorescence from whole slices was measured as the mean intensity with an inverted Nikon eclipse T2000-U microscope (Nikon Instruments). […] The results were normalized to the basal condition, which was considered as 100%. Image analysis was performed using Fiji software.

[3] = system: mouse hippocampal slices; details: 1 μM, OA 1 μM, 6 h
Description: Once the treatment was ended, the cell viability was measured by the MTT method, cell death with the fluorescent probe PI (1 μg/mL), and ROS production with the fluorescent probe H2DCFDA (10 μL/mL).
as §3

[4] = In vitro glutathione conjugation (LC-IT-MS); format: in vitro ADME; details: 100 μM, GSH 1 mM, with or without GST, 37 °C, 1 h
Description: As the control, nonenzymatic reaction (mixture lacking GST) was also performed.
The reaction was maintained at 37 °C for 1 h. As a control, the nonenzymatic reaction mixture (mixture lacking GST) was incubated for 1 h at 37 °C. The reactions were stopped by adding 100 μL of 20% trifluoroacetic acid. The samples were prepared for analysis by adding 400 μL of a 50:50 mixture of MeOH/CH3CN. The reaction mixtures were analyzed using an API QSTAR pulsar I LC–MS/MS system (Applied Biosystems, Madrid, Spain) equipped with an electrospray ionization source and connected to a LC system 1100 series (Agilent Technologies, Madrid, Spain). […] The LC-IT-MS was operated in the positive ion mode.

[5] = in vitro; format: in vitro ADME
[6] = system: HO-1; assay: Western blotting of HO-1 in hippocampal slices exposed to OA; format: cell-based, mouse; details: hippocampal slices treated with OA
From the text: as §1, §2

[7] = Oxygen radical absorbance capacity (ORAC-FL) assay; details: trolox = 1.0
[8] = system: p65; assay: Western blotting of p65 in hippocampal slices exposed to OA; format: cell-based, mouse; details: hippocampal slices treated with OA
From the text: as §1, §2

C#CCn1nc(/C=C/c2ccc(OC)cc2)oc1=O [4e, 5-[(E)-2-(4-Methoxyphenyl)ethenyl]-3-(prop-2-yn-1-yl)-1,3,4-oxadiazol-2(3H)-one]
iNOS level [1]: reduced to basal levels
ROS production (H2DCFDA) [2]: significantly decrease ROS production to basal levels; also recorded: significantly reduced ROS production
cell death (PI mean intensity) [2]: reduced hippocampal death with a statistical trend (p = 0.07); also recorded: reduce cell death; although the differences were not statistically significant
ROS production (H2DCFDA) [3]: reduced ROS production to basal levels
cell viability (MTT) [3]: significantly increased the cell viability to almost basal levels
GSH adduct formation [4]: no peaks corresponding to GS-4e adducts were found
Papp at 240 min, 100 μg mL^–1 ([5]; PAMPA, pH 7.4, class from PAMPA-BBB Pe, read-out: CNS-permeability prediction): > 4 ×10⁻⁶ cm/s
PAMPA-BBB (Pe, 10^–6 cm s^–1) ([5]; porcine brain lipid, PBS/EtOH (70:30), 240 min, 25 °C): 8.0 ± 0.5 10^–6 cm s^–1
HO-1 level [6]: further increased
ORAC (trolox equiv) [7]: <0.1 trolox equiv
p65 level [8]: slightly reduced p65 below to the basal value
